In patent publication US20180296531A1, “STIMULATION OF 11B-HSD2 EXPRESSION TO IMPROVE HORMONAL THERAPY OF STEROID-DEPENDENT DISEASE” (THE CLEVELAND CLINIC FOUNDATION, priority 2015, published 2018):

Experiments:
[1] = tested on: LAPC4 xenografts grown in orchiectomized mice; assay: Xenograft cortisol metabolism: [3H]-cortisol inactivation in freshly harvested tumors; assay type: in vivo, mouse; conditions: CRPC xenograft tumors from enzalutamide-treated mice vs orchiectomy alone
Protocol: Xenograft metabolism. LAPC4 cells (˜10^7) were injected subcutaneously with Matrigel (Corning) into surgically orchiectomized NSG mice that were implanted with DHEA pellets (5 mg/pellet, 90-day sustained-release, Innovative Research of America). Fresh xenografts were harvested and ˜40 mg xenograft tissues were minced, and cultured in IMEM with 10% FBS at 37° C. with a mixture of [^3H]-cortisol and non-radiolabeled cortisol. Aliquots of media were collected at the indicated time points, steroids were extracted and concentrated as described above.

11β-HSD2 protein [2] = assay: Immunoblot of 11β-HSD2 protein in prostate cancer cell lines; assay type: cell-based, human
Protocol: (§1) For protein analysis, immunoblots were performed as described previously. Li et al., J Clin Endocrinol Metab 98, E1189-1197 (2013). Briefly, total cellular protein was extracted with ice cold RIPA lysis buffer (Sigma-Aldrich) containing protease inhibitors (Roche). 30-50 μg protein was separated by 8% SDS-PAGE gel and then transferred to a nitrocellulose membrane (Millipore). After incubating with the anti-11β-HSD2 antibody (Santa Cruz; 1:3000), anti-11β-HSD1 antibody (Santa Cruz; 1:1000), GR antibody (BD Biosciences; 1:1000), anti-Erlin-2 antibody (Cell Signaling Technology: 1:1000) or anti-AMFR antibody (Proteintech; 1:1000) overnight at 4° C., the appropriate secondary antibody was incubated for 1 hour at room temperature. The chemiluminescent detection system (Thermo Scientific) was used to detect the bands with peroxidase activity. An anti-β-actin antibody (Sigma-Aldrich; 1:5000) was used as a control for sample loading.

GR protein = assay: Immunoblot of GR protein in prostate cancer cell lines; assay type: cell-based, human
Protocol: as §1

11β-HSD2 protein [3] = assay: Human prostate cancer tissue studies, 11β-HSD2 protein; conditions: tissues from patients with prostate cancer treated with enzalutamide (in patients or ex vivo 10 μM, 7-8 days)
Protocol: All deidentified human tissues were obtained using institutional review board (IRB)-approved protocols. Pre- and post-Enz lymph node tissues were obtained from CT-guided biopsy of metastatic CRPC from Cleveland Clinic (Patient #3) and Dana-Farber Cancer Institute (Patient #4). Pathologic identification of tumor was done by an expert prostate cancer pathologist. Staining of tissues from Patient #4 was done with frozen section slides that were air dried at room temperature for 5 minutes, followed by rehydration with PBS. Immunofluorescence staining was performed as described above. H&E staining was completed by the imagine core of Biomedical Engineering Department in Lerner Research Institute of Cleveland Clinic.
Paired pre-Enz treatment and post-Enz treatment tissues from Patient #1 and Patient #2 were obtained from patients with localized prostate cancer treated with Enz plus ADT for 2 months prior to the second biopsy in a clinical trial (NCT02064582) at the University of Texas Southwestern Medical Center. Biopsies were obtained using image-guidance with a Koelis Urostation. The biopsy cores were minced into pieces and then added into Soft tissue homogenizing CK14 tubes (Betin Technologies) with 100 μl 6M Urea buffer containing protease inhibitors (Sigma Aldrich). Tissue homogenization and immunoblot analysis were performed as described previously. […]

tumor corticosterone = assay: Mass spectrometry of corticosterone in xenograft tumors; assay type: in vivo, mouse
Protocol: Xenograft analysis. At least 24 mg tumor tissue (n=18) was homogenized with 1 ml LC-MS grade water (Fisher) by using homogenizer. The mixture was then centrifuged. 800 μl of the supernatant was transferred to a glass tube, followed by the addition of 80 μl of 10 ng/ml internal standard (corticosterone-d8) (Steraloids). The steroids and the internal standard were extracted with methyl tert butyl ether (Across) evaporated to dryness under N2 then reconstituted with 500 μl of 50% methanol.
(§2) The LC-MS/MS system contains an ultra-pressure liquid chromatography system (Shimadzu Corporation, Japan) which is consisted of two LC-30AD pumps, a DGU-20A5R degasser, a CTO-30A column oven, SIL-30AC autosampler, and a system controller CBM-20A and coupled with a Qtrap 5500 mass spectrometer (AB Sciex). Data acquisition and processing were performed using Analyst® software (version 1.6.2) from ABSciex.
(§3) Steroids were ionized using electrospray ionization in positive mode. Quantification of analytes was performed using multiple reaction monitoring. The mass transitions for corticosterone, 11-dehydrocorticosterone, and internal standard are 347.3/121.0, 345.3/121.0, and 355.3/125.0, respectively. Separation of steroids was achieved using a Zorbax Eclipse plus C18 column (Agilent) using mobile phase consisting of (A) 0.2% formic acid in water and (B) 0.2% formic acid in (methanol:acetonitrile, 60:40) with a gradient program at a flow rate of 0.2 ml/min. Sample injection volume was 10 μl.

serum corticosterone = assay: Mass spectrometry of corticosterone in mouse serum; assay type: in vivo
Protocol: Mouse serum analysis. At the endpoint of the xenograft study, mouse serum was collected. 20 μl of mouse serum and internal standard (corticosterone-d8) were precipitated with 200 μl methanol. After centrifugation, the supernatant was transferred to HPLC vials prior to mass spectrometry analysis.
as §2, §3

AMFR = assay: Immunoblot of AMFR; assay type: cell-based, human; conditions: enzalutamide treatment, LAPC4 cells and patient tissues
Protocol: as §1

[4] = enzalutamide-treated 11β-HSD2 tumors
[5] = enzalutamide-treated vector tumors
[6] = enzalutamide treated 11β-HSD2 mice
[7] = enzalutamide treated vector mice

Q: Which “inactivation of [3H]-cortisol by conversion to cortisone” value [1] does the source give for `CNC(=O)c1ccc(N2C(=S)N(c3ccc(C#N)c(C(F)(F)F)c3)C(=O)C2(C)C)cc1F` [enzalutamide] here?
A: impaired capability of inactivating [^3H]-cortisol

Q: And the 11β-HSD2 protein expression (11β-HSD2 protein [2]; AR-negative DU145 prostate cancer cell line)?
A: does not change 11β-HSD2 protein expression

Q: What about the 11β-HSD2 protein (11β-HSD2 protein [2]; LAPC4) of the same compound?
A: Loss of 11β-HSD2 protein

Q: What about the 11β-HSD2 protein (11β-HSD2 protein [2]; MDA-PCa-2b) of the same compound?
A: Loss of 11β-HSD2 protein

Q: And the 11β-HSD2 protein (11β-HSD2 protein [2]; VCaP)?
A: Loss of 11β-HSD2 protein

Q: And the GR protein (GR protein; LAPC4)?
A: increase in GR protein

Q: And the GR protein (GR protein; VCaP and MDA-PCa-2b)?
A: increase in GR protein

Q: What about the “patient tissues with loss of 11β-HSD2 with treatment” value (11β-HSD2 protein [3]) of the same compound?
A: Nine of 11

Q: What about the “percentage of tumor corticosterone of corticosterone plus 11-dehydrocorticosterone” value (tumor corticosterone; [4]) of the same compound?
A: 33%

Q: What about the tumor corticosterone concentration (tumor corticosterone; [4]) of the same compound?
A: 15.1 pmol/g

Q: What about the “percentage of tumor corticosterone of corticosterone plus 11-dehydrocorticosterone” value (tumor corticosterone; [5]) of the same compound?
A: 59%

Q: And the tumor corticosterone concentration (tumor corticosterone; [5])?
A: 44.5 pmol/g

Q: And the “serum corticosterone absolute concentration” value (serum corticosterone; [6])?
A: 867 pmol/mL

Q: What about the “serum percentage of corticosterone” value (serum corticosterone; [6]) of the same compound?
A: 99.85%

Q: What about the “serum corticosterone absolute concentration” value (serum corticosterone; [7]) of the same compound?
A: 873 pmol/mL

Q: What about the “serum percentage of corticosterone” value (serum corticosterone; [7]) of the same compound?
A: 99.87%

Q: And the AMFR expression (AMFR)?
A: did not consistently increase AMFR expression
